Results published in ChEMBL document CHEMBL1136384, “Design, synthesis and biological evaluation of hetaryl-nucleoside derivatives as inhibitors of chitin synthase” (Bioorg Med Chem Lett, 2003).

Legend:
[1] = Compound tested for the inhibition of chitin synthase using Saccharomyces cerevisiae cells (X2180 strain)
Aspergillus fumigatus = experiment: Inhibitory activity tested against Aspergillus fumigatus at 256 ug/mL concentration; format: functional
Candida albicans = experiment: Inhibitory activity tested against Candida albicans at 256 ug/mL concentration; format: functional
Cryptococcus neoformans = experiment: Inhibitory activity tested against Cryptococcus neoformans at 256 ug/mL concentration; format: functional
Saccharomyces cerevisiae = experiment: Inhibitory activity tested against Saccharomyces cerevisiae at 256 ug/mL concentration; format: functional

Row | Compound | IC50 [1] [µM] | Ki [1] [µM] | other results
1 | C[C@@H]([C@H](N)C(=O)N[C@H](C(=O)O)[C@H]1O[C@@H](n2ccc(=O)[nH]c2=O)[C@H](O)[C@@H]1O)[C@H](O)c1ccc(O)cn1 (stereo in doubt) [NIKKOMYCIN] | 0.5 | 0.34 | –
2 | O=c1ccn([C@@H]2O[C@H](CO[C@@H]3O[C@@H](CO)[C@@H](O)[C@H](OCc4ccc5ccccc5n4)[C@@H]3O)[C@@H](O)[C@H]2O)c(=O)[nH]1 | 800 | 250 | –
3 | COCOc1ccc(COC(=O)CC(=O)OC[C@H]2OC(n3ccc(=O)[nH]c3=O)[C@H](O)[C@@H]2O)nc1 (stereo partly specified) | 10800 | – | –
4 | O=c1ccn([C@@H]2O[C@H](CO[C@@H]3O[C@@H](CO)[C@@H](OCc4ccc5ccccc5n4)[C@H](O)[C@@H]3O)[C@@H](O)[C@H]2O)c(=O)[nH]1 | 2000 | – | –
5 | O=C(NC[C@H]1OC(n2ccc(=O)[nH]c2=O)[C@H](O)[C@@H]1O)[C@H](O)[C@@H](O)C(=O)OCc1ccc(O)cn1 (stereo partly specified) | 3200 | – | –
6 | O=c1ccn([C@@H]2O[C@H](CO[C@@H]3O[C@@H](COCc4ccc5ccccc5n4)[C@@H](O)[C@H](O)[C@@H]3O)[C@@H](O)[C@H]2O)c(=O)[nH]1 | 3200 | – | inhibition at 256 µg/mL (Aspergillus fumigatus): 30%; inhibition at 256 µg/mL (Candida albicans): 30%; inhibition at 256 µg/mL (Cryptococcus neoformans): 80%; inhibition (Saccharomyces cerevisiae): 30%
7 | O=C(NC[C@@H]1OC(n2ccc(=O)[nH]c2=O)[C@H](O)[C@@H]1O)[C@H](O)[C@@H](O)C(=O)OCc1ccc2ccccc2n1 (stereo partly specified) | 2000 | 800 | –
8 | O=C(CC(=O)OC[C@H]1OC(n2ccc(=O)[nH]c2=O)[C@H](O)[C@@H]1O)OCc1ccc(O)cn1 (stereo partly specified) | 2800 | – | –
9 | C[C@@H]([C@H](N)C(=O)N[C@H](C(=O)O)[C@H]1O[C@@H](n2ccc(=O)[nH]c2=O)[C@H](O)[C@@H]1O)[C@H](O)c1ccc(O)cn1 [NIKKOMYCIN] | 0.34 | – | –
